In publication PMC5377010 (International Journal for Parasitology: Drugs and Drug …, 2017) one finds Kd and Km data, which are given here for two molecules.

In series [1] the target is T1, Elongation Factor 1Bγ (gEF1Bγ) (Giardia duodenalis, UniProt A8BFR0).
T1 sequence (A8BFR0 1-402): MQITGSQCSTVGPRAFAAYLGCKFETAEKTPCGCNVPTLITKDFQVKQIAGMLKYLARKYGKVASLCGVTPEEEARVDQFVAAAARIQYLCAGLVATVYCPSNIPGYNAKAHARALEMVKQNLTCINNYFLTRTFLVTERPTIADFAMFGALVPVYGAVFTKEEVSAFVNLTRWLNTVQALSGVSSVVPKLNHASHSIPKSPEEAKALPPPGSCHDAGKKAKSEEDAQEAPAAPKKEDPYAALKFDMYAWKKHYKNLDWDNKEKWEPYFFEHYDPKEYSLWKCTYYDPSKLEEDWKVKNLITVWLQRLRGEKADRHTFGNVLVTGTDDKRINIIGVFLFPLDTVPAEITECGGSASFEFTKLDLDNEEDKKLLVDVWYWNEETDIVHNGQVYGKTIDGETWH
Kind of series: intrinsic protein fluorescence quenching. The series is classed as binding.

Series [2] has as its target T2, Thioredoxin Reductase (gTrxR) (Giardia duodenalis, UniProt E2RU27).
T2 sequence (E2RU27 1-314): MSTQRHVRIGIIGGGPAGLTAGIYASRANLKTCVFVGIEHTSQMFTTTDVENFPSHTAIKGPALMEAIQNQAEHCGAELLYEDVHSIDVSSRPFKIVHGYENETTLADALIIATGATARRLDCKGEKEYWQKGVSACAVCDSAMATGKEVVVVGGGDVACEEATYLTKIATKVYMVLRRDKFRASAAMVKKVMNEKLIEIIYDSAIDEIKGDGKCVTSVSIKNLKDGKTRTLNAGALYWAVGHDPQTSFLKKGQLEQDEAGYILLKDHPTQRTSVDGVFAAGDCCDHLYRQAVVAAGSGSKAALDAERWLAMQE
Nature of the series: intrinsic protein fluorescence quenching. The series is classed as binding.

Substrate in series [3]: NC(=O)C1=CN([C@@H]2O[C@H](COP(=O)(O)OP(=O)(O)OC[C@H]3O[C@@H](n4cnc5c(N)ncnc54)[C@H](OP(=O)(O)O)[C@@H]3O)[C@@H](O)[C@H]2O)C=CC1
Nature of the series: purified protein. As to conditions: FAD NADPH-binding domain.

Substrate in series [4]: O=C(O)c1cc(SSc2ccc([N+](=O)[O-])c(C(=O)O)c2)ccc1[N+](=O)[O-]
Kind of series: purified protein. As to conditions: FAD; NADPH site partially overlapping that of NBDHEX.

Take `O=[N+]([O-])c1ccc(SCCCCCCO)c2nonc12` [NBDHEX, 6-(7-nitro-2,1,3-benzoxadiazol-4-ylthio)hexanol]: the Kd (as a rule, the equilibrium constant for the complex coming apart) in series [1] was less than 400 nM; in series [2], 140 ± 50 nM.

B1: Thioredoxin Reductase (gTrxR) (Giardia lamblia ATCC 50803) (protein)
chain: MSTQRHVRIGIIGGGPAGLTAGIYASRANLKTCVFVGIEHTSQMFTTTDVENFPSHTAIKGPALMEAIQNQAEHCGAELLYEDVHSIDVSSRPFKIVHGYENETTLADALIIATGATARRLDCKGEKEYWQKGVSACAVCDSAMATGKEVVVVGGGDVACEEATYLTKIATKVYMVLRRDKFRASAAMVKKVMNEKLIEIIYDSAIDEIKGDGKCVTSVSIKNLKDGKTRTLNAGALYWAVGHDPQTSFLKKGQLEQDEAGYILLKDHPTQRTSVDGVFAAGDCCDHLYRQAVVAAGSGSKAALDAERWLAMQE
B1: the Km – broadly, the substrate concentration at which the rate is half of its maximum – in series [3] turned out to be 2.6 ± 0.6 µM; in series [4], 1500 ± 100 µM.
